Test results from publication doi:10.1101/2020.06.11.145995v1 (biorxiv, 2020).
Where two headings read alike, the source gives them in different places.

Assays:
Assay in all cases: biochemical
[1] = target: GRK4 (Homo sapiens, UniProt P32298)
[2] = target: CDK3 (Homo sapiens, UniProt Q00526)
[3] = target: MYLK4 (Homo sapiens, UniProt Q86YV6)
[4] = target: MET (Homo sapiens, UniProt P08581)
[5] = target: MKNK2 (Homo sapiens, UniProt Q9HBH9)
[6] = target: FGFR1 (Homo sapiens, UniProt P11362)
[7] = target: CAMK2B (Homo sapiens, UniProt Q13554)
[8] = target: MAP3K2 (Homo sapiens, UniProt Q9Y2U5)
[9] = target: DMPK (Homo sapiens, UniProt Q09013)
[10] = target: ACVR2B (Homo sapiens, UniProt Q13705)
[11] = target: FLT4 (Homo sapiens, UniProt P35916)
[12] = target: MAK (Homo sapiens, UniProt P20794)
[13] = target: ADCK4 (Homo sapiens, UniProt Q96D53)
[14] = target: DCAMKL1 (Homo sapiens, UniProt O15075)
[15] = target: EGFR (Homo sapiens, UniProt P00533)
Sequence of EGFR (P00533 whole entry): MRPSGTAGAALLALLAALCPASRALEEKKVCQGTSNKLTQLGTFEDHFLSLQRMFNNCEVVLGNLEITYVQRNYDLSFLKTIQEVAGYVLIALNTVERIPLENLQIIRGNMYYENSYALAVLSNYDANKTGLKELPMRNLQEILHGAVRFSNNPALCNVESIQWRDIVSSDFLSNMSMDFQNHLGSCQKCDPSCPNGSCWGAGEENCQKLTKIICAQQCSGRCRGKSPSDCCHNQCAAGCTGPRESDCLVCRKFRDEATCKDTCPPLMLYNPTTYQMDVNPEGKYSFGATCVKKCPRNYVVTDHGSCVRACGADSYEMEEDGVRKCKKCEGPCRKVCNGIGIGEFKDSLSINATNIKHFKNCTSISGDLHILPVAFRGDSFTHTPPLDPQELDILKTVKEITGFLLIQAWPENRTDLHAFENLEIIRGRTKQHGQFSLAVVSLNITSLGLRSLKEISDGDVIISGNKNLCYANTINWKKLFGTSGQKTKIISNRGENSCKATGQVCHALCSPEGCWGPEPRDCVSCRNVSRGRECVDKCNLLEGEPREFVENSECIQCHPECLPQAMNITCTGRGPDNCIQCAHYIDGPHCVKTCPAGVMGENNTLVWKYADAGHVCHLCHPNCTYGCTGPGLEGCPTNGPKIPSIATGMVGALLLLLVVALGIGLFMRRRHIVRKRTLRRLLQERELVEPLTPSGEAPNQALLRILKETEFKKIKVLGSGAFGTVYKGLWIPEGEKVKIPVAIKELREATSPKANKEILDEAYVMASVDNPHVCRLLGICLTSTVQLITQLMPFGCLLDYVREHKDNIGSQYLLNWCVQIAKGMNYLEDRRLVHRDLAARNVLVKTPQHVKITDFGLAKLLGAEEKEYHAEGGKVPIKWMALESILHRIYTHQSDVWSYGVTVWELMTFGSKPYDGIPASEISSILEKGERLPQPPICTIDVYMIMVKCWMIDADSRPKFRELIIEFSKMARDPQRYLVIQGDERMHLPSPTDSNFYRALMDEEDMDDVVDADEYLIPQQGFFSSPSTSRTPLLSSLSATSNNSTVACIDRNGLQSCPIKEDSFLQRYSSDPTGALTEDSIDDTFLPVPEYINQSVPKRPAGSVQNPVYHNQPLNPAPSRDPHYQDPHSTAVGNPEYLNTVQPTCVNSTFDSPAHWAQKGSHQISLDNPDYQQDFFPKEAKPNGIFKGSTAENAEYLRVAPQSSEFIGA

[16] = target: CSNK2A1 (Homo sapiens, UniProt P68400)
[17] = target: LOK (Homo sapiens, UniProt O94804)
[18] = target: CAMK2G (Homo sapiens, UniProt Q13555)
Sequence of CAMK2G (Q13555 whole entry): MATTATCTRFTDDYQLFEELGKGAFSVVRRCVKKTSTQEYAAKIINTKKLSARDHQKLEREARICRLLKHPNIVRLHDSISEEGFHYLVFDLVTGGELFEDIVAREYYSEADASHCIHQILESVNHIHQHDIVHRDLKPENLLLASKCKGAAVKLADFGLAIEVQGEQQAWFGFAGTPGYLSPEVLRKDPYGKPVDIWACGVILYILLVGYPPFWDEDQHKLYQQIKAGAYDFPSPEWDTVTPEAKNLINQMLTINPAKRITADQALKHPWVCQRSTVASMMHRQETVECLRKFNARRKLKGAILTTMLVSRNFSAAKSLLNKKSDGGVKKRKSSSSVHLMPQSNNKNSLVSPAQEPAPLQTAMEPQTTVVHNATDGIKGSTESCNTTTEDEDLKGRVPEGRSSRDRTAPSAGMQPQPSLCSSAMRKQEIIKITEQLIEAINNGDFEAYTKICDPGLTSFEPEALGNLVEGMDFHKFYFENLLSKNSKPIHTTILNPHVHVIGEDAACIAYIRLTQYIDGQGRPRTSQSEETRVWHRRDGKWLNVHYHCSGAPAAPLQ

[19] = target: MST4 (Homo sapiens, UniProt Q9P289)
[20] = target: BMPR1B (Homo sapiens, UniProt O00238)
Sequence of BMPR1B (O00238 whole entry): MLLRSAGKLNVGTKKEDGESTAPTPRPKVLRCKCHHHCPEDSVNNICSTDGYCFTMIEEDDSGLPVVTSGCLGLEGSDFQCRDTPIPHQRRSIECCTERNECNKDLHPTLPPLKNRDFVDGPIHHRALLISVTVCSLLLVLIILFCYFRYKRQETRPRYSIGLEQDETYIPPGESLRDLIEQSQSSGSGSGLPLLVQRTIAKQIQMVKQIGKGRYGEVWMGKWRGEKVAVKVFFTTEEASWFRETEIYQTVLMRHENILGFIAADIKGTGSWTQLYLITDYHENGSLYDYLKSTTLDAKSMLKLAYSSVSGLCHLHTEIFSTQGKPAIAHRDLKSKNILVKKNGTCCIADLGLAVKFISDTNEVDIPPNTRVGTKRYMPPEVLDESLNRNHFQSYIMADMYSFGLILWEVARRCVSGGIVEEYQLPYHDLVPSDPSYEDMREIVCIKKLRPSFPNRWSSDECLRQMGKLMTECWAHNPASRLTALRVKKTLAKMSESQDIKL

[21] = target: BTK (Homo sapiens, UniProt Q06187)
[22] = target: MAP4K5 (Homo sapiens, UniProt Q9Y4K4)
Sequence of MAP4K5 (Q9Y4K4 whole entry): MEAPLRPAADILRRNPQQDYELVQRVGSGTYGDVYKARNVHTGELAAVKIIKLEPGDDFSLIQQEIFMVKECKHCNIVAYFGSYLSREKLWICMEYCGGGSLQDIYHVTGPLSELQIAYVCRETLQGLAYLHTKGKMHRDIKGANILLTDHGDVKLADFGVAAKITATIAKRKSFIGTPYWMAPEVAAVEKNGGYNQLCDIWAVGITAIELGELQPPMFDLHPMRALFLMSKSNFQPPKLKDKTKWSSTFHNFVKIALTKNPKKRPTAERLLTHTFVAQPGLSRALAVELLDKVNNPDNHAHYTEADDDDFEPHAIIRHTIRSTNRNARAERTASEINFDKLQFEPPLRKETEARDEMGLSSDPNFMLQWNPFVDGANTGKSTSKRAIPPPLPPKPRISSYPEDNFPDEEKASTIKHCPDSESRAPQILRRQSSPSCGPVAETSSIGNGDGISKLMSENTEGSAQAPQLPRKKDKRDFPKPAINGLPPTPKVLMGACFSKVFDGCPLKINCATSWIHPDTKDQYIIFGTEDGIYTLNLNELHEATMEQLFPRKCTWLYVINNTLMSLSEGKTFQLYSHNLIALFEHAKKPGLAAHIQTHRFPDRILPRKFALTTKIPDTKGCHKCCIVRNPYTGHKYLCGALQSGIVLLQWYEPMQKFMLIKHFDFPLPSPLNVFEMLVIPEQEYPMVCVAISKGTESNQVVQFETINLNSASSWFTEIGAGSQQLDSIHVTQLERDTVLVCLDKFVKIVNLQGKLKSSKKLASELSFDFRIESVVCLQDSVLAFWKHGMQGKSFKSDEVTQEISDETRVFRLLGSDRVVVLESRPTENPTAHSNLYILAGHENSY

[23] = target: BRAF (Homo sapiens, UniProt P15056)
[24] = target: EGFR(G719C) (Homo sapiens, UniProt P00533, G719C)
Sequence of EGFR(G719C) (P00533 whole entry G719C): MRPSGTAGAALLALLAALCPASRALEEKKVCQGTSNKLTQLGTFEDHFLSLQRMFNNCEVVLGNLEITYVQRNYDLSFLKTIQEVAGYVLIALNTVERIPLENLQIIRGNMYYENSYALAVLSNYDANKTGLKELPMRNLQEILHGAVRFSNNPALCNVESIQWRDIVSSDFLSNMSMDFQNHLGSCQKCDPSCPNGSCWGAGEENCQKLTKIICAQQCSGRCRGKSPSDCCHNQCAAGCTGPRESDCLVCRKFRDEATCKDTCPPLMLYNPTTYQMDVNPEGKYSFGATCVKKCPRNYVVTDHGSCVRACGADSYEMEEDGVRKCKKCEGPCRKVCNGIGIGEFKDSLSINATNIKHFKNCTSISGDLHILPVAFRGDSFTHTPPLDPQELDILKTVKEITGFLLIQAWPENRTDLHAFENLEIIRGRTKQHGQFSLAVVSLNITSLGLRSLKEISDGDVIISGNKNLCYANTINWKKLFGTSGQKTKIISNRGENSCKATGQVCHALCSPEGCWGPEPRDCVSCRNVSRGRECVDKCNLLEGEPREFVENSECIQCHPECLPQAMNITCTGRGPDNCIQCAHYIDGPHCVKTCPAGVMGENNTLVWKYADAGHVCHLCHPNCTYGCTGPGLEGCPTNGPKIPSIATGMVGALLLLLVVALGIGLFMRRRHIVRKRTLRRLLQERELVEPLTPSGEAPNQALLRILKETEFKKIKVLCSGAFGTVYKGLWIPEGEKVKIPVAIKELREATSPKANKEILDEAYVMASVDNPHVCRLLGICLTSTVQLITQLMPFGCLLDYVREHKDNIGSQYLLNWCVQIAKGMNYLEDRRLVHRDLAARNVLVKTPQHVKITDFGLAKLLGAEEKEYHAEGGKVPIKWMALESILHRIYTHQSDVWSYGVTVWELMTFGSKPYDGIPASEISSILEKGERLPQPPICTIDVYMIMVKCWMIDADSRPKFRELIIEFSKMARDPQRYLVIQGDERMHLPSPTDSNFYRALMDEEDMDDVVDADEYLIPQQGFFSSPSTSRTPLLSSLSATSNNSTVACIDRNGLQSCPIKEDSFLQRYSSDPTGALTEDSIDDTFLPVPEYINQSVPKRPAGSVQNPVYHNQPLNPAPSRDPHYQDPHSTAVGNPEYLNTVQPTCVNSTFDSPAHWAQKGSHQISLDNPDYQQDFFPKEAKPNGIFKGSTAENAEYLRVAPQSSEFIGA

[25] = target: CAMKK1 (Homo sapiens, UniProt Q8N5S9)
[26] = target: FLT3(ITD) (Homo sapiens, UniProt P36888, ITD)
[27] = target: AURKA (Homo sapiens, UniProt O14965)
[28] = target: AKT2 (Homo sapiens, UniProt P31751)
Sequence of AKT2 (P31751 whole entry): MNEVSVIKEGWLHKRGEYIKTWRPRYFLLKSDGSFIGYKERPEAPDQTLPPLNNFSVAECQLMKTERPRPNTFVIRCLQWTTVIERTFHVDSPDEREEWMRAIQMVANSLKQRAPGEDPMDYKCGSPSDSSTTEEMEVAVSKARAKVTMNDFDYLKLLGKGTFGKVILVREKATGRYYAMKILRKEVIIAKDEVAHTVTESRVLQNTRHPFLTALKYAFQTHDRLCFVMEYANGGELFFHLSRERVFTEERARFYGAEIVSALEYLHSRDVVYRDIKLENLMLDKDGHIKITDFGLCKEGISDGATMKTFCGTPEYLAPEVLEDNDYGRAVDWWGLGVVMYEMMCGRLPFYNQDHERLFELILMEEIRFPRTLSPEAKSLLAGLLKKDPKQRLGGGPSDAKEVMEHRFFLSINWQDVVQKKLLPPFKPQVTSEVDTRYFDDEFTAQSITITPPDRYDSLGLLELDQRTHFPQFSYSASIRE

[29] = target: CDK8 (Homo sapiens, UniProt P49336)
[30] = target: ACVRL1 (Homo sapiens, UniProt P37023)
[31] = read-out: CPT-1-70-1 (1uM) % control
[32] = read-out: HYJ-2-002-1 (1uM) % control

CN1CCN(c2ccc(Nc3nc(Oc4ccc(NC(=O)CCl)cc4)c4cc[nH]c4n3)cc2)CC1 [CPT1-70-1]
remaining activity at 1 µM [1, 31]: 100%
remaining activity at 1 µM [2, 31]: 100%
remaining activity at 1 µM [3, 31]: 92%
remaining activity at 1 µM [4, 31]: 28%
remaining activity at 1 µM [5, 31]: 100%
remaining activity at 1 µM [6, 31]: 2.2%
remaining activity at 1 µM [7, 31]: 100%
remaining activity at 1 µM [8, 31]: 37%
remaining activity at 1 µM [9, 31]: 41%
remaining activity at 1 µM [10, 31]: 100%
remaining activity at 1 µM [11, 31]: 81%
remaining activity at 1 µM [12, 31]: 100%
remaining activity at 1 µM [13, 31]: 91%
remaining activity at 1 µM [14, 31]: 100%
remaining activity at 1 µM [15, 31]: 63%
remaining activity at 1 µM [16, 31]: 35%
remaining activity at 1 µM [17, 31]: 100%
remaining activity at 1 µM [18, 31]: 100%
remaining activity at 1 µM [19, 31]: 49%
remaining activity at 1 µM [20, 31]: 100%
remaining activity at 1 µM [21, 31]: 7%
remaining activity at 1 µM [22, 31]: 25%
remaining activity at 1 µM [23, 31]: 87%
remaining activity at 1 µM [24, 31]: 8%
remaining activity at 1 µM [25, 31]: 84%
remaining activity at 1 µM [26, 31]: 1.6%
remaining activity at 1 µM [27, 31]: 37%
remaining activity at 1 µM [28, 31]: 100%
remaining activity at 1 µM [29, 31]: 100%
remaining activity at 1 µM [30, 31]: 100%

CCN1CCN(Cc2ccc(NC(=O)c3ccc(C)c(CCc4cnc5[nH]ccc5c4OC)c3)cc2C(F)(F)F)CC1 [HYJ-2-002-1]
remaining activity at 1 µM [1, 32]: 100%
remaining activity at 1 µM [2, 32]: 99%
remaining activity at 1 µM [3, 32]: 100%
remaining activity at 1 µM [4, 32]: 59%
remaining activity at 1 µM [5, 32]: 7%
remaining activity at 1 µM [6, 32]: 1.2%
remaining activity at 1 µM [7, 32]: 74%
remaining activity at 1 µM [8, 32]: 26%
remaining activity at 1 µM [9, 32]: 100%
remaining activity at 1 µM [10, 32]: 100%
remaining activity at 1 µM [11, 32]: 3.8%
remaining activity at 1 µM [12, 32]: 100%
remaining activity at 1 µM [13, 32]: 100%
remaining activity at 1 µM [14, 32]: 100%
remaining activity at 1 µM [15, 32]: 5%
remaining activity at 1 µM [16, 32]: 94%
remaining activity at 1 µM [17, 32]: 0.75%
remaining activity at 1 µM [18, 32]: 100%
remaining activity at 1 µM [19, 32]: 98%
remaining activity at 1 µM [20, 32]: 100%
remaining activity at 1 µM [21, 32]: 8.1%
remaining activity at 1 µM [22, 32]: 16%
remaining activity at 1 µM [23, 32]: 3.7%
remaining activity at 1 µM [24, 32]: 0.75%
remaining activity at 1 µM [25, 32]: 100%
remaining activity at 1 µM [26, 32]: 2.3%
remaining activity at 1 µM [27, 32]: 100%
remaining activity at 1 µM [28, 32]: 95%
remaining activity at 1 µM [29, 32]: 9.2%
remaining activity at 1 µM [30, 32]: 100%
